Test results reported in patent US11999739B2, “Antimicrobials methods of making and using the same” (BIOVERSYS AG, priority 2016, dated 2024).

Legend:
[1] = tested on: Escherichia coli strain ATCC25922; test: Standard microdilution MIC assay, E. coli; format: cell-based
Procedure, shortened: (§1)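 Broth microdilution per CLSI M7-A8 guidelines, with reference-strain quality control run in the same design; MIC determined per strain. Activity scored +/− against a 16 micrograms/mL cutoff.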

[2] = tested on: Staphylococcus aureus (S. aureus) 11540 strain; test: Standard microdilution MIC assay, S. aureus; format: cell-based
Procedure, shortened: as §1

Compound	MIC [1]	MIC [2]
CC(=N)NCC[C@@H]1CCC[C@@H](c2ccc(-n3cc4cc(-c5cc(CCC[C@H](C)N)cc(Cl)c5F)[nH]c4nc3=O)cc2)N1Cc1cocn1 [Compound 278]	≤ 16 µg/mL	≤ 16 µg/mL
CC(=N)NCC[C@@H]1CCC[C@@H](c2c(F)cc(-n3cc4cc(-c5cc(CCC[C@@H](N)CF)cc(Cl)c5F)[nH]c4nc3=O)cc2F)N1 [Compound 279]	≤ 16 µg/mL	≤ 16 µg/mL
COC[C@H](N)CCCc1cc(OC(F)(F)F)c(F)c(-c2cc3cn(-c4cc(F)c([C@@H]5CCC[C@@H](CCNC(C)=N)N5)c(F)c4)c(=O)nc3[nH]2)c1 [Compound 280]	≤ 16 µg/mL	≤ 16 µg/mL
CC(=N)NCC[C@@H]1CCC[C@@H](c2c(F)cc(-n3cc4cc(-c5cc(CCC[C@@H](N)CO)cc(Cl)c5F)[nH]c4nc3=O)cc2F)N1 [Compound 281]	≤ 16 µg/mL	≤ 16 µg/mL
CC(=N)NCC[C@@H]1CCC[C@@H](c2c(F)cc(-n3cc4cc(-c5cc(CCC[C@H](C)N)cc(Cl)c5F)[nH]c4nc3=O)cc2N2CCOCC2)N1 [Compound 282]	≤ 16 µg/mL	≤ 16 µg/mL
CN=C(C)NCC[C@@H]1CCC[C@@H](c2ccc(-n3cc4cc(-c5cc(CCC[C@H](C)N)cc(Cl)c5F)[nH]c4nc3=O)cc2)N1 [Compound 283]	≤ 16 µg/mL	≤ 16 µg/mL
CC(=N)NCC[C@@H]1CCC[C@@H](c2ccc(-n3cc4cc(-c5cc(CCC[C@@H](N)CS(C)(=O)=O)cc(Cl)c5F)[nH]c4nc3=O)cc2)N1 [Compound 284]	≤ 16 µg/mL	≤ 16 µg/mL
CC(=N)NCC[C@@H]1CCC[C@@H](c2c(F)cc(-n3cc4cc(-c5cc(CCC[C@@H](N)C6CC6)cc(C(F)(F)F)c5)[nH]c4nc3=O)cc2F)N1 [Compound 285]	≤ 16 µg/mL	≤ 16 µg/mL
CSc1cc(-n2cc3cc(-c4cc(CCC[C@@H](N)C5CC5)cc(C(F)(F)F)c4)[nH]c3nc2=O)cc(F)c1[C@@H]1CCC[C@@H](CCNC(C)=N)N1 [Compound 286]	≤ 16 µg/mL	≤ 16 µg/mL
CC(=N)NCC[C@@H]1CCC[C@@H](c2ccc(-n3cc4cc(-c5ccc(C(F)(F)F)c(CCC[C@H](C)N)c5)[nH]c4nc3=O)cc2)N1 [Compound 287]	≤ 16 µg/mL	≤ 16 µg/mL
CC(=N)NCC[C@@H]1CCC[C@@H](c2ccc(-n3cc4cc(-c5cc(CCC[C@H](C)N)cc(Cl)c5F)[nH]c4nc3=O)cc2)N1Cc1c(C)ncn1C [Compound 288]	≤ 16 µg/mL	≤ 16 µg/mL
CC(=N)NCC[C@@H]1CCC[C@@H](c2ccc(-n3cc4cc(-c5cc(CCC[C@@H](N)CN)cc(Cl)c5F)[nH]c4nc3=O)cc2)N1 [Compound 289]	≤ 16 µg/mL	≤ 16 µg/mL
COC(=O)c1ccc(-c2cc3cn(-c4ccc([C@@H]5CCC[C@@H](CCNC(C)=N)N5)cc4)c(=O)nc3[nH]2)cc1CCC[C@H](C)N [Compound 291]	≤ 16 µg/mL	≤ 16 µg/mL
CSc1cc(-n2cc3cc(-c4cc(CCC[C@H](C)N)cc(C(F)(F)F)c4)[nH]c3nc2=O)ccc1[C@@H]1CCC[C@@H](CCNC(C)=N)N1CCCF [Compound 292]	≤ 16 µg/mL	≤ 16 µg/mL
CC(=N)NCC[C@@H]1CCC[C@@H](c2ccc(-n3cc4cc(-c5cc(CCC[C@H](C)N)cc(C(F)(F)F)c5)[nH]c4nc3=O)cc2)N1CCCF [Compound 293]	≤ 16 µg/mL	≤ 16 µg/mL
CC(=N)NCC[C@@H]1CCC[C@@H](c2ccc(-n3cc4cc(-c5cc(F)c(C(F)(F)F)c(CCC[C@H](C)N)c5)[nH]c4nc3=O)cc2)N1 [Compound 318]	≤ 16 µg/mL	≤ 16 µg/mL
COc1cc(-n2cc3cc(-c4cc(CCC[C@H](C)N)cc(Cl)c4F)[nH]c3nc2=O)cc(F)c1[C@@H]1CCC[C@@H](CCNC(C)=N)N1 [Compound 319]	≤ 16 µg/mL	≤ 16 µg/mL
C=C[C@H](N)CCCc1cc(Cl)c(F)c(-c2cc3cn(-c4cc(F)c([C@@H]5CCC[C@@H](CCNC(C)=N)N5)c(OC)c4)c(=O)nc3[nH]2)c1 [Compound 320]	≤ 16 µg/mL	≤ 16 µg/mL
COc1cc(-n2cc3cc(-c4cc(CCC[C@@H](N)C5CC5)cc(Cl)c4F)[nH]c3nc2=O)cc(F)c1[C@@H]1CCC[C@@H](CCNC(C)=N)N1 [Compound 321]	≤ 16 µg/mL	≤ 16 µg/mL
COc1cc(-n2cc3cc(-c4cc(CCC[C@@H](N)CO)cc(C(F)(F)F)c4F)[nH]c3nc2=O)cc(F)c1[C@@H]1CCC[C@@H](CCNC(C)=N)N1 [Compound 323]	≤ 16 µg/mL	≤ 16 µg/mL
CC(=N)NCC[C@@H]1CCC[C@@H](c2ccc(-n3cc4cc(-c5cc(CCC[C@H](C)N)cc(Cl)c5F)[nH]c4nc3=O)cc2F)N1CCCF [Compound 325]	≤ 16 µg/mL	≤ 16 µg/mL
CSc1cc(-n2cc3cc(-c4cc(CCC[C@@H](N)C5CC5)cc(C(F)(F)F)c4)[nH]c3nc2=O)ccc1[C@@H]1CCC[C@@H](CCNC(C)=N)N1CCCF [Compound 326]	≤ 16 µg/mL	≤ 16 µg/mL
CC(=N)NCC[C@@H]1CCC[C@@H](c2ccc(-n3cc4cc(-c5cc(CCC[C@@H](N)C6CC6)cc(C(F)(F)F)c5)[nH]c4nc3=O)cc2F)N1CCCF [Compound 327]	≤ 16 µg/mL	≤ 16 µg/mL

Compound	MIC [1]	MIC [2]
CC(=N)NCC[C@@H]1CCC[C@@H](c2ccc(-n3cc4cc(-c5cc(CCC[C@H](C)N)cc(C(F)(F)F)c5)[nH]c4nc3=O)cc2F)N1CCCF [Compound 328]	≤ 16 µg/mL	≤ 16 µg/mL
CSc1cc(-n2cc3cc(-c4cc(CCC[C@H](C)N)cc(C(F)(F)F)c4)[nH]c3nc2=O)cc(F)c1[C@@H]1CCC[C@@H](CCNC(C)=N)N1CCCF [Compound 329]	≤ 16 µg/mL	≤ 16 µg/mL
CC(=N)NCC[C@@H]1CCC[C@@H](c2ccc(-n3cc4cc(-c5cc(CCC[C@@H](N)C6CC6)cc(C(F)(F)F)c5)[nH]c4nc3=O)cc2)N1CCCF [Compound 330]	≤ 16 µg/mL	≤ 16 µg/mL
CSc1cc(-n2cc3cc(-c4cc(CCC[C@H](C)N)cc(Cl)c4F)[nH]c3nc2=O)ccc1[C@@H]1CCC[C@@H](CCNC(C)=N)N1CCCF [Compound 331]	≤ 16 µg/mL	≤ 16 µg/mL
CC(=N)NCC[C@@H]1CCC[C@@H](c2ccc(-n3cc4cc(-c5cc(CCC[C@@H](N)C6CC6)cc(Cl)c5F)[nH]c4nc3=O)cc2F)N1CCCF [Compound 332]	≤ 16 µg/mL	≤ 16 µg/mL
CSc1cc(-n2cc3cc(-c4cc(CCC[C@@H](N)C5CC5)cc(Cl)c4F)[nH]c3nc2=O)ccc1[C@@H]1CCC[C@@H](CCNC(C)=N)N1CCCF [Compound 333]	≤ 16 µg/mL	≤ 16 µg/mL
CC(=N)NCC[C@@H]1CCC[C@@H](c2ccc(-n3cc4cc(-c5cc(CCC[C@@H](N)C6CC6)cc(Cl)c5F)[nH]c4nc3=O)cc2)N1CCCF [Compound 334]	≤ 16 µg/mL	≤ 16 µg/mL
CSc1cc(-n2c(C)c3cc(-c4cc(CCC[C@@H](N)C5CC5)cc(Cl)c4F)[nH]c3nc2=O)ccc1[C@@H]1CCC[C@@H](CCNC(C)=N)N1 [Compound 335]	≤ 16 µg/mL	≤ 16 µg/mL
CSc1cc(-n2cc3cc(-c4cc(CCC[C@@H](N)C5CC5)cc(C(F)(F)F)c4)[nH]c3nc2=O)cc(F)c1[C@@H]1CCC[C@@H](CCNC(C)=N)N1CCCF [Compound 337]	≤ 16 µg/mL	≤ 16 µg/mL
CSc1cc(-n2cc3cc(-c4cc(CCC[C@@H](N)C5CC5)cc(Cl)c4F)[nH]c3nc2=O)cc(F)c1[C@@H]1CCC[C@@H](CCNC(C)=N)N1CCCF [Compound 338]	≤ 16 µg/mL	≤ 16 µg/mL
COC[C@H](N)CCCc1cc(-c2cc3cn(-c4ccc([C@@H]5CCC[C@@H](C[C@@H](C)NC(C)=N)N5)cc4)c(=O)nc3[nH]2)c(F)c(C(F)(F)F)c1 [Compound 339]	≤ 16 µg/mL	≤ 16 µg/mL
C=C[C@@H](N)CCCc1cc(Cl)c(F)c(-c2cc3cn(-c4ccc([C@@H]5CCC[C@@H](C[C@@H](C)NC(C)=N)N5)cc4)c(=O)nc3[nH]2)c1 [Compound 340]	≤ 16 µg/mL	≤ 16 µg/mL
C=C[C@H](N)CCCc1cc(-c2cc3cn(-c4ccc([C@@H]5CCC[C@@H](CCNC(C)=N)N5CCCF)c(SC)c4)c(=O)nc3[nH]2)cc(C(F)(F)F)c1 [Compound 342]	≤ 16 µg/mL	≤ 16 µg/mL
C=C[C@H](N)CCCc1cc(Cl)c(F)c(-c2cc3cn(-c4ccc([C@@H]5CCC[C@@H](CCNC(C)=N)N5CCCF)cc4)c(=O)nc3[nH]2)c1 [Compound 343]	≤ 16 µg/mL	≤ 16 µg/mL
C=C[C@H](N)CCCc1cc(Cl)c(F)c(-c2cc3cn(-c4ccc([C@@H]5CCC[C@@H](CCNC(C)=N)N5CCCF)c(SC)c4)c(=O)nc3[nH]2)c1 [Compound 344]	≤ 16 µg/mL	≤ 16 µg/mL
C=C[C@H](N)CCCc1cc(-c2cc3cn(-c4ccc([C@@H]5CCC[C@@H](CCNC(C)=N)N5CCCF)cc4)c(=O)nc3[nH]2)cc(C(F)(F)F)c1 [Compound 346]	≤ 16 µg/mL	≤ 16 µg/mL
COC[C@H](N)CCCc1cc(OC(F)(F)F)c(F)c(-c2cc3cn(-c4ccc([C@@H]5CCC[C@@H](CCNC(C)=N)N5)nc4)c(=O)nc3[nH]2)c1 [Compound 347]	≤ 16 µg/mL	≤ 16 µg/mL
COCCC(=N)NCC[C@@H]1CCC[C@@H](c2ccc(-n3cc4cc(-c5cc(CCC[C@H](C)N)cc(Cl)c5F)[nH]c4nc3=O)cc2)N1 [Compound 348]	≤ 16 µg/mL	≤ 16 µg/mL
C=C[C@H](N)CCCc1cc(-c2cc3cn(-c4ccc([C@@H]5CCC[C@@H](CCNC(C)=N)N5CCCF)c(F)c4)c(=O)nc3[nH]2)cc(C(F)(F)F)c1 [Compound 349]	≤ 16 µg/mL	≤ 16 µg/mL
C=C[C@H](N)CCCc1cc(Cl)c(F)c(-c2cc3cn(-c4cc(F)c([C@@H]5CCC[C@@H](CCNC(C)=N)N5CCCF)c(SC)c4)c(=O)nc3[nH]2)c1 [Compound 350]	≤ 16 µg/mL	≤ 16 µg/mL
C=C[C@H](N)CCCc1cc(-c2cc3cn(-c4cc(F)c([C@@H]5CCC[C@@H](CCNC(C)=N)N5CCCF)c(SC)c4)c(=O)nc3[nH]2)cc(C(F)(F)F)c1 [Compound 351]	≤ 16 µg/mL	≤ 16 µg/mL
CCCC(=N)NCC[C@@H]1CCC[C@@H](c2ccc(-n3cc4cc(-c5cc(CCC[C@H](C)N)cc(Cl)c5F)[nH]c4nc3=O)cc2)N1 [Compound 352]	≤ 16 µg/mL	≤ 16 µg/mL
CCCC(=N)NCC[C@@H]1CCC[C@@H](c2ccc(-n3cc4cc(-c5cc(CCC[C@H](C)N)cc(Cl)c5F)[nH]c4nc3=O)cc2SC)N1 [Compound 353]	≤ 16 µg/mL	≤ 16 µg/mL
